# Source: paper PMC5786788, “Antimicrobial Octapeptin C4 Analogues Active against Cryptococcus Species” (Antimicrobial Agents and Chemotherapy, 2018)
# Read-outs that look alike come from different tables or passages of the source.
# How the values were obtained:
# [1] = tested on: C. neoformans var. grubii; assay: microbe, parasite or virus in culture
# Protocol: The MICs of the yeast strains for PMB, PME, and octapeptin C4 and its derivatives were determined in accordance with CLSI M27-A2 guidelines using YNB (Becton Dickinson, USA) medium supplemented with 10 mM ammonium sulfate and 2% glucose, a final inoculum concentration of 1.5 × 10^3 to 2.0 × 10^3 cells/ml, and incubation at 35°C for 72 h ([39]). […] The MICs for PMB, PME, and octapeptin C4 for A. fumigatus were determined in accordance with the CLSI M38-A2 guidelines ([40]) using synthetic RPMI 1640 medium (with glutamine, without bicarbonate and with phenol red; Life Technologies, USA). The final inoculum concentration was 0.4 × 10^4 to 5 × 10^4 cells/ml, with incubation at 35°C for 48 h. […] All assays were completed in triplicate. Fluconazole was used as a positive control where the MIC was determined at both 50% growth (in accordance with CLSI M27-A2 guidelines) and when there was a “no visible growth” reading. […]
# [2] = tested on: C. neoformans var. gattii; assay: microbe, parasite or virus in culture; conditions: Cryptococcus neoformans
# Protocol: The MICs of the yeast strains for PMB, PME, and octapeptin C4 and its derivatives were determined in accordance with CLSI M27-A2 guidelines using YNB (Becton Dickinson, USA) medium supplemented with 10 mM ammonium sulfate and 2% glucose, a final inoculum concentration of 1.5 × 10^3 to 2.0 × 10^3 cells/ml, and incubation at 35°C for 72 h ([39]). […] The MICs for PMB, PME, and octapeptin C4 for A. fumigatus were determined in accordance with the CLSI M38-A2 guidelines ([40]) using synthetic RPMI 1640 medium (with glutamine, without bicarbonate and with phenol red; Life Technologies, USA). The final inoculum concentration was 0.4 × 10^4 to 5 × 10^4 cells/ml, with incubation at 35°C for 48 h. […] All assays were completed in triplicate. Fluconazole was used as a positive control where the MIC was determined at both 50% growth (in accordance with CLSI M27-A2 guidelines) and when there was a “no visible growth” reading.
smiles,measurement,setting,value
"OC(Cn1cncn1)(Cn1cncn1)c1ccc(F)cc1F [Fluconazole, fluconazole]",MIC,"[1]; Cryptococcus neoformans, read-out: MIC-2, strain 486 (USA), 50% fungal growth",12.5 µg/mL
same,MIC,"[1]; Cryptococcus neoformans, read-out: MIC-2, strain 488 (AIDS+, pre-HAART USA), 50% fungal growth",12.5 µg/mL
same,MIC,"[1]; Cryptococcus neoformans, read-out: MIC-2, strain 490 (USA), 50% fungal growth",6.25 µg/mL
same,MIC,"[1]; Cryptococcus neoformans, read-out: MIC-2, strain 496 (USA), 50% fungal growth",6.25 µg/mL
same,MIC,"[1]; Cryptococcus neoformans, read-out: MIC-2, strain 500 (USA), 50% fungal growth",6.5 µg/mL
same,MIC,"[1]; Cryptococcus neoformans, read-out: MIC-2, strain 502 (ARR3+ USA), 50% fungal growth",6.5 µg/mL
same,MIC,"[1]; Cryptococcus neoformans, read-out: MIC-2, strain 505 (India), 50% fungal growth",6.25 µg/mL
same,MIC,"[1]; Cryptococcus neoformans, read-out: MIC-2, strain 507 (India), 50% fungal growth",6.25 µg/mL
same,MIC,"[1]; Cryptococcus neoformans, read-out: MIC-2, strain 510 (VNII India), 50% fungal growth",1.56 µg/mL
same,MIC,"[1]; Cryptococcus neoformans, read-out: MIC-2, strain 512 (India), 50% fungal growth",6.25 µg/mL
same,MIC,"[1]; Cryptococcus neoformans, read-out: MIC-2, strain 516 (India), 50% fungal growth",6.25 µg/mL
same,MIC,"[1]; Cryptococcus neoformans, read-out: MIC-2, strain 518 (VNI India), 50% fungal growth",6.25 µg/mL
same,MIC,"[1]; Cryptococcus neoformans, read-out: MIC-2, strain 522 (India), 50% fungal growth",6.25 µg/mL
same,MIC,"[1]; Cryptococcus neoformans, read-out: MIC-2, strain 525 (India), 50% fungal growth",12.5 µg/mL
same,MIC,"[1]; Cryptococcus neoformans, read-out: MIC-2, strain 1188 (Japan lung), 50% fungal growth",3.13 µg/mL
same,MIC,"[1]; Cryptococcus neoformans, read-out: MIC-2, strain 1194 (Italy), 50% fungal growth",1.56 µg/mL
same,MIC,"[1]; Cryptococcus neoformans, read-out: MIC-2, strain 1196 (Botswana CSF/AIDS), 50% fungal growth",12.5 µg/mL
same,MIC,"[1]; Cryptococcus neoformans, read-out: MIC-2, strain 1197 (Botswana CSF/AIDS), 50% fungal growth",3.13 µg/mL
same,MIC,"[1]; Cryptococcus neoformans, read-out: MIC-2, strain 1199 (Uganda CSF/HIV+ VNII), 50% fungal growth",3.13 µg/mL
same,MIC,"[1]; Cryptococcus neoformans, read-out: MIC-2, strain H99O (lab strain), 50% fungal growth",6.25 µg/mL
same,MIC,"[1]; Cryptococcus neoformans, read-out: MIC-2, strain H99 XL (lab strain), 50% fungal growth",3.13 µg/mL
same,MIC,"[1]; Cryptococcus neoformans, read-out: MIC-2, strain H99 stud (lab strain), 50% fungal growth",3.13 µg/mL
same,MIC,"[1]; Cryptococcus neoformans, strain 486 (USA), no visible growth",25 µg/mL
same,MIC,"[1]; Cryptococcus neoformans, strain 488 (AIDS+, pre-HAART USA), no visible growth",25 µg/mL
same,MIC,"[1]; Cryptococcus neoformans, strain 490 (USA), no visible growth",12.5 µg/mL
same,MIC,"[1]; Cryptococcus neoformans, strain 496 (USA), no visible growth",12.5 µg/mL
same,MIC,"[1]; Cryptococcus neoformans, strain 500 (USA), no visible growth",12.5 µg/mL
same,MIC,"[1]; Cryptococcus neoformans, strain 502 (ARR3+ USA), no visible growth",12.5 µg/mL
same,MIC,"[1]; Cryptococcus neoformans, strain 505 (India), no visible growth",6.25 µg/mL
same,MIC,"[1]; Cryptococcus neoformans, strain 507 (India), no visible growth",12.5 µg/mL
same,MIC,"[1]; Cryptococcus neoformans, strain 510 (VNII India), no visible growth",3.13 µg/mL
same,MIC,"[1]; Cryptococcus neoformans, strain 512 (India), no visible growth",12.5 µg/mL
same,MIC,"[1]; Cryptococcus neoformans, strain 516 (India), no visible growth",12.5 µg/mL
same,MIC,"[1]; Cryptococcus neoformans, strain 518 (VNI India), no visible growth",12.5 µg/mL
same,MIC,"[1]; Cryptococcus neoformans, strain 522 (India), no visible growth",12.5 µg/mL
same,MIC,"[1]; Cryptococcus neoformans, strain 525 (India), no visible growth",25 µg/mL
same,MIC,"[1]; Cryptococcus neoformans, strain 1188 (Japan lung), no visible growth",12.5 µg/mL
same,MIC,"[1]; Cryptococcus neoformans, strain 1194 (Italy), no visible growth",6.25 µg/mL
same,MIC,"[1]; Cryptococcus neoformans, strain 1196 (Botswana CSF/AIDS), no visible growth",25 µg/mL
same,MIC,"[1]; Cryptococcus neoformans, strain 1197 (Botswana CSF/AIDS), no visible growth",12.5 µg/mL
same,MIC,"[1]; Cryptococcus neoformans, strain 1199 (Uganda CSF/HIV+ VNII), no visible growth",12.5 µg/mL
same,MIC,"[1]; Cryptococcus neoformans, strain H99O (lab strain), no visible growth",12.5 µg/mL
same,MIC,"[1]; Cryptococcus neoformans, strain H99 XL (lab strain), no visible growth",6.25 µg/mL
same,MIC,"[1]; Cryptococcus neoformans, strain H99 stud (lab strain), no visible growth",6.25 µg/mL
same,MIC,"[1]; read-out: MIC-2, strain 1189 (USA BAL/HIV), 50% fungal growth",12.5 µg/mL
same,MIC,"[1]; strain 1189 (USA BAL/HIV), no visible growth",25 µg/mL
same,MIC,"[2]; ATCC24066, read-out: MIC-2, strain ATCC 24066 (NIH 18), 50% fungal growth",1.56 µg/mL
same,MIC,"[2]; ATCC24066, strain ATCC 24066 (NIH 18), no visible growth",3.13 µg/mL
same,MIC,"[2]; ATCC32269, read-out: MIC-2, strain ATCC 32269, 50% fungal growth",0.78 µg/mL
same,MIC,"[2]; ATCC32269, strain ATCC 32269, no visible growth",1.56 µg/mL
same,MIC,"[2]; ATCC32608, read-out: MIC-2, strain ATCC 32608 (NIH 191), 50% fungal growth",0.39 µg/mL
same,MIC,"[2]; ATCC32608, strain ATCC 32608 (NIH 191), no visible growth",0.78 µg/mL
same,MIC,"[2]; ATCC32609, read-out: MIC-2, strain ATCC 32609 (NIH444), 50% fungal growth",3.13 µg/mL
same,MIC,"[2]; ATCC32609, strain ATCC 32609 (NIH444), no visible growth",6.25 µg/mL
same,MIC,"[2]; ATCC34878, read-out: MIC-2, strain ATCC 34878, 50% fungal growth",3.13 µg/mL
same,MIC,"[2]; ATCC34878, strain ATCC 34878, no visible growth",6.25 µg/mL
same,MIC,"[2]; ATCC34882, read-out: MIC-2, strain ATCC 34882, 50% fungal growth",1.56 µg/mL
